Laboratory results as given in patent publication US9546401B2, “Assays and methods for selecting a treatment regimen for a subject with depression” (The General Hospital Corporation, priority 2011, dated 2017).
Like-named read-outs stand apart in the source and are kept apart here.

Tested on: MDD patients carrying the indicated biomarkers
Method: Folate levels are classified as either low (<=2.5 ng/ml) or normal; and homocysteine levels as either normal or elevated (>=[…]). The presence or absence of at least one […] allele for the MTHFR gene are entered as a dichotomous variable (present or absent). […] Using folate as an example predicator, the presence or absence of a low serum-folate level along with treatment assignment can be entered in a 2×2, factorial ANOVA, using depression improvement scores (baseline minus endpoint HAM-D-17 scores) as the dependant variable. […] Similar analyses (i.e. separate 2×2 ANOVA's) can be performed substituting the presence of low folate levels for the presence of other predictors as described herein. Similarly, the effect of other predictors can be indicated by the interaction term representing the potential modulating influence of those variables.
The efficacy effect is determined by measuring the mean change in the HAMD-17 score and HAMD-28 score by the end of Phase I and Phase II, as compared to the baseline.

[1] = Phase I, BMI < 30 kg/m^2 and SAM/SAH >= median
[2] = Phase I, BMI >= 30 kg/m^2 and HNE-His >= median
[3] = Phase I, BMI*treat (interaction of BMI with the treatment)
[4] = Phase I, MTHFR 677 CC and BMI < 30 kg/m^2
[5] = Phase I, MTHFR 677 CT or TT and BMI >= 30 kg/m^2
[6] = Phase I, MTHFR 677 CT or TT and HNE-His >= median
[7] = Phase I, MTR 2756 AA and BMI < 30 kg/m^2
[8] = Phase I, MTR 2756 AA and HNE-His < median
[9] = Phase I, MTR 2756 AA and MTRR 66 AA
[10] = Phase I, MTR 2756 AA and MTRR 66 AA and SAM/SAH >= median
[11] = Phase I, MTR 2756 AA and SAM/SAH >= median
[12] = Phase I, MTR 2756 AG or GG and BMI >= 30 kg/m^2
[13] = Phase I, MTR 2756 AG or GG and MTRR 66 AG or GG
[14] = Phase I, MTR 2756 AG or GG and MTRR 66 AG or GG and HNE-His >= median
[15] = Phase I, MTRR 66 AA and SAM/SAH >= median
[16] = Phase I, MTRR 66 AG or GG and HNE-His >= median
[17] = Phase I, SAM/SAH < median and HNE-His >= median
[18] = Phase I, SAM/SAH >= median and HNE-His < median
[19] = Phase II, 25 =< BMI < 30 kg/m^2

CN1c2c(nc(N)[nH]c2=O)NC[C@@H]1CNc1ccc(C(=O)N[C@@H](CCC(=O)O)C(=O)O)cc1 [6(S)-5-MTHF, 6(S)-5-methyltetrahydrofolate]
Effect on change in HAMD-28 score (Phase I, BMI < 30 kg/m^2 and HNE-His < median): 4.606 | Effect on change in HAMD-17 score [1]: 4.333 | Effect on change in HAMD-28 score [1]: 4.333 | Effect on change in HAMD-17 score (Phase I, BMI >= 30 kg/m^2): −6.414 | Effect on change in HAMD-28 score (Phase I, BMI >= 30 kg/m^2): −6.677 | Effect on change in HAMD-17 score [2]: −6.569 | Effect on change in HAMD-28 score [2]: −6.510 | Effect on change in HAMD-17 score (Phase I, BMI >= 30 kg/m^2 and SAM/SAH < median): −5.611 | Effect on change in HAMD-28 score (Phase I, BMI >= 30 kg/m^2 and SAM/SAH < median = 2.71 (plasma)): −6.306 | Effect on change in HAMD-17 score [3]: −0.567 | Effect on change in HAMD-28 score [3]: −0.668 | Effect on change in HAMD-17 score [4]: 4.500 | Effect on change in HAMD-28 score [4]: 2.769 | Effect on change in HAMD-17 score (Phase I, MTHFR 677 CC and HNE-His < median): −1.471 | Effect on change in HAMD-28 score (Phase I, MTHFR 677 CC and HNE-His < median = 3.28 (plasma)): −2.821 | Effect on change in HAMD-17 score [5]: −8.738 | Effect on change in HAMD-28 score [5]: −9.857 | Effect on change in HAMD-17 score [6]: −7.143 | Effect on change in HAMD-28 score [6]: −6.929 | Effect on change in HAMD-17 score (Phase I, MTR 2756 AA): −0.621 | Effect on change in HAMD-28 score (Phase I, MTR 2756 AA): 0.409 | Effect on change in HAMD-17 score [7]: 4.476 | Effect on change in HAMD-28 score [7]: 5.524 | Effect on change in HAMD-17 score [8]: 0.306 | Effect on change in HAMD-28 score [8]: 0.639 | Effect on change in HAMD-17 score [9]: 3.125 | Effect on change in HAMD-28 score [9]: 5.000 | Effect on change in HAMD-17 score (Phase I, MTR 2756 AA and MTRR 66 AA and HNE-His < median): 3.000 | Effect on change in HAMD-28 score (Phase I, MTR 2756 AA and MTRR 66 AA and HNE-His < median = 3.28 (plasma)): 4.200 | Effect on change in HAMD-17 score [10]: −0.400 | Effect on change in HAMD-28 score [10]: −1.000 | Effect on change in HAMD-17 score [11]: −1.556 | Effect on change in HAMD-28 score [11]: −1.278 | Effect on change in HAMD-17 score [12]: −12.905 | Effect on change in HAMD-28 score [12]: −18.762 | Effect on change in HAMD-17 score (Phase I, MTR 2756 AG or GG and HNE-His >= median): −7.125 | Effect on change in HAMD-28 score (Phase I, MTR 2756 AG or GG and HNE-His >= median = 3.28 (plasma)): −9.950 | Effect on change in HAMD-17 score [13]: −6.900 | Effect on change in HAMD-28 score [13]: −9.996 | Effect on change in HAMD-17 score [14]: −7.200 | Effect on change in HAMD-28 score [14]: −9.800 | Effect on change in HAMD-17 score (Phase I, MTR 2756 AG or GG and MTRR 66 AG or GG and SAM/SAH < median): −9.000 | Effect on change in HAMD-28 score (Phase I, MTR 2756 AG or GG and MTRR 66 AG or GG and SAM/SAH < median = 2.71 (plasma)): −12.741 | Effect on change in HAMD-17 score (Phase I, MTR 2756 AG or GG and SAM/SAH < median): −9.800 | Effect on change in HAMD-28 score (Phase I, MTR 2756 AG or GG and SAM/SAH < median = 2.71 (plasma)): −14.993 | Effect on change in HAMD-17 score (Phase I, MTR 2756 AG/GG): −7.143 | Effect on change in HAMD-28 score (Phase I, MTR 2756 AG/GG): −10.926 | Effect on change in HAMD-17 score (Phase I, MTRR 66 AA and HNE-His < median): −1.167 | Effect on change in HAMD-28 score (Phase I, MTRR 66 AA and HNE-His < median = 3.28 (plasma)): −4.167 | Effect on change in HAMD-17 score [15]: −0.125 | Effect on change in HAMD-28 score [15]: 0.500 | Effect on change in HAMD-17 score [16]: −5.958 | Effect on change in HAMD-28 score [16]: −6.975 | Effect on change in HAMD-17 score (Phase I, MTRR 66 AG or GG and SAM/SAH < median): −5.062 | Effect on change in HAMD-28 score (Phase I, MTRR 66 AG or GG and SAM/SAH < median = 2.71 (plasma)): −6.498 | Effect on change in HAMD-17 score [17]: −3.670 | Effect on change in HAMD-28 score [17]: −4.227 | Effect on change in HAMD-17 score (Phase I, SAM/SAH >= med): −0.946 | Effect on change in HAMD-28 score (Phase I, SAM/SAH >= med = 2.71 (plasma)): −1.148 | Effect on change in HAMD-17 score [18]: −0.250 | Effect on change in HAMD-28 score [18]: −0.750 | Effect on change in HAMD-28 score (Phase I, SAM/SAH*treat, first line under HAMD28): 0.495 | Effect on change in HAMD-17 score (Phase I, baseHAMD-17*treat (interaction of base HAMD-17 with the treatment)): 0.165 | Effect on change in HAMD-17 score [19]: 2.000 | Effect on change in HAMD-28 score [19]: 0.000 | Effect on change in HAMD-17 score (Phase II, BMI < 25): −1.400
